Tests used:
[1] = Pharmacokinetics and metabolism of Bp4eT in rats (literature); assay type: in vivo
[2] = cited from earlier work
[3] = system: H9c2 rat heart-derived myoblast cell line; assay: MTT proliferation/viability assay, H9c2; assay type: cell-based; conditions: 72 h/37°C, mean ± S.D., serum- and pyruvate-free DMEM
Experimental: (§1) The MCF-7 human breast adenocarcinoma cell line was purchased from the European Collection of Cell Cultures (U.K.). The HL-60 human promyelocytic leukemia cell line, HCT116 human colorectal carcinoma cell line, H9c2 rat heart-derived myoblast cell line and 3T3 mouse embryo fibroblast line, were obtained from the American Type Culture Collection (VA, U.S.A.). Cells were cultured in Dulbecco's modified Eagle's medium (DMEM, Lonza, Switzerland) with or without (for MCF-7 cells only) phenol red, supplemented with 10% heat-inactivated fetal bovine serum (FBS; Lonza, Switzerland), 1% penicillin/streptomycin solution (Lonza, Switzerland) and 10 mM HEPES buffer (pH 7.0-7.6; Sigma-Aldrich, Germany). The HL-60 cell line was maintained in RPMI medium (Sigma-Aldrich, Germany) supplemented with 10% heat-inactivated FBS and 1% penicillin/streptomycin solution. All cell lines were cultured in 75 cm^2 tissue culture flasks (Switzerland) at 37°C in a humidified atmosphere of 5% CO2. Sub-confluent cells or, in the case of HL-60 cells, a cell suspension, were sub-cultured every 3-4 days.
(§2) Cells were seeded in 96-well plates for 24 h/37°C at a density of 5,000 (MCF-7), 10,000 (HL-60), 2,000 (HCT116) and 10,000 (3T3 and H9c2) cells/well. For 3T3 and H9c2 cells, the medium was changed to serum- and pyruvate-free DMEM 24 h prior to the experiments. Anti-proliferative and cytotoxicity effects of the compounds were studied at different concentrations after incubations for 72 h/37°C. Viabilities of cells were determined using MTT assays (Sigma-Aldrich, Germany) according to the manufacturer's instructions on a Tecan Infinite 200M plate reader (Tecan, Austria). The proliferation/viability of treated groups was expressed as a percentage of the untreated controls (100%).

MCF-7 cells [4] = assay: Inhibition of internalized 59Fe uptake from 59Fe-transferrin; assay type: cell-based, human; conditions: MCF-7, compounds 25 μmol·L^−1, 3 h/37°C
Experimental: (§3) Iron chelation efficiency of the compounds at a concentration of 10 μmol·L^−1 was determined via 3 methods: (1) the calcein assay; (2) the ability of the ligands to induce ^59Fe mobilization from cells prelabeled with ^59Fe-transferrin; and (3) the efficacy of these agents to inhibit the uptake of ^59Fe from ^59Fe-transferrin [22, 38–40].
(§4) The fluorimetric calcein-AM assay was performed by established methods, as described previously. The Fe chelation efficiency of the metabolites in cells was expressed as a percentage of that of the parent chelator, Dp44mT or DpC (100%). For studies assessing the ability of these agents to induce ^59Fe mobilization and inhibit ^59Fe uptake from ^59Fe-transferrin by cells, human transferrin (Sigma-Aldrich, Germany) was labeled with ^59Fe (PerkinElmer, MA, USA) to generate ^59Fe-transferrin at a final specific activity of 500 pCi/pmol Fe, as previously described. The unbound ^59Fe was removed by exhaustive vacuum dialysis against a large excess of 0.15 M NaCl buffered to pH 7.4 with 1.4% NaHCO3 by standard methods.
(§5) To examine the ability of the studied substances to mobilize ^59Fe from MCF-7 cells or inhibit ^59Fe uptake from ^59Fe-transferrin, established techniques were utilized. For ^59Fe mobilization studies, cells were preincubated with ^59Fe-transferrin (0.75 μmol·L^−1) for 3 h/37°C, washed 4 times at 4°C on ice, and then reincubated with control medium or control medium containing the compounds (25 μmol·L^−1) for 3 h/37°C. The release of ^59Fe from the cells into the overlying medium was then examined by collecting both the cells and overlying medium and assessing ^59Fe levels using a γ-counter. For studies examining the ability of the agents to inhibit ^59Fe uptake from ^59Fe-transferrin, cells were incubated for 3 h/37°C with ^59Fe-transferrin (0.75 μmol·L^−1) in the presence or absence of the agents (25 μmol·L^−1), and then washed 4 times at 4°C on ice. The internalization of ^59Fe by cells was then assessed by incubation for 30 min/4°C with the general protease, Pronase (1 mg/mL), utilizing standard techniques. The amount of internalized ^59Fe in the presence of the agents was expressed as a percentage of ^59Fe internalized by control cells incubated in the presence of control media alone.

[5] = system: non-cancer cell lines (H9c2 and 3T3); assay: MTT assay, non-cancer cell lines as a group; assay type: cell-based; conditions: Rattus norvegicus, 72 h/37°C, read-out: IC50 towards non-cancer cells
Experimental: as §1, with “All cell lines were cultured in 75 cm^2 tissue culture flasks (Switzerland) at 37°C in a humidified atmosphere of 5% CO2. Sub-confluent cells or, in the case of HL-60 cells, a cell suspension, were sub-cultured every 3-4 days.” left out
Cells were seeded in 96-well plates for 24 h/37°C at a density of 5,000 (MCF-7), 10,000 (HL-60), 2,000 (HCT116) and 10,000 (3T3 and H9c2) cells/well. […] Viabilities of cells were determined using MTT assays (Sigma-Aldrich, Germany) according to the manufacturer's instructions on a Tecan Infinite 200M plate reader (Tecan, Austria). The proliferation/viability of treated groups was expressed as a percentage of the untreated controls (100%).

[6] = system: HCT116 human colorectal carcinoma cell line; assay: MTT proliferation/viability assay, HCT116; assay type: cell-based; conditions: HCT-116, 72 h/37°C, mean ± S.D.
Experimental: as §1, §2

[7] = system: 3T3 mouse embryo fibroblast line; assay: MTT proliferation/viability assay, 3T3; assay type: cell-based; conditions: 72 h/37°C, mean ± S.D., serum- and pyruvate-free DMEM
Experimental: as §1, §2

[8] = system: cancer cell lines (HL-60, MCF-7 and HCT116); assay: MTT assay, cancer cell lines as a group; assay type: cell-based; conditions: Homo sapiens, HL-60, MCF-7, HCT116, 72 h/37°C, read-out: IC50 against all cancer cell lines
Experimental: as §1, §2

[9] = system: MCF-7 human breast adenocarcinoma cell line; assay: MTT proliferation/viability assay, MCF-7; assay type: cell-based; conditions: MCF7, 72 h/37°C, mean ± S.D.
Experimental: as §1, §2

[10] = Long-term stability in plasma samples at -80°C; assay type: in vitro ADME, rat; conditions: for Long-term stability: plasma, -80°C, 7 days
Experimental: (§6) The UHPLC-MS/MS methods for quantitative assays were validated with respect to selectivity, linearity, precision, accuracy, stability, recovery, matrix effects and dilution integrity (see […]
Linearity was examined over the concentration ranges described in Supplementary Table 1 using a weighted (1/x 2) linear regression in GraphPad Prism 6 (v. 6.04, GraphPad Software […]
(§7) Stability was assessed at low, medium and high concentration levels. Long -term stability was assessed for plasma samples at -80°C over a period of 7 days (three aliquots per level; Supplementary Table 3). […]

[11] = system: HL-60 human promyelocytic leukemia cell line; assay: MTT proliferation/viability assay, HL-60; assay type: cell-based; conditions: 72 h/37°C, mean ± S.D.
Experimental: as §1, §2

MCF-7 cells [12] = assay: 59Fe mobilization from cells prelabeled with 59Fe-transferrin; assay type: cell-based, human; conditions: MCF-7 prelabeled with 59Fe-transferrin, compounds 25 μmol·L^−1, 3 h/37°C
Experimental: as §3, §4, §5

[13] = system: cellular labile iron pools; assay: Fluorimetric calcein-AM assay of intracellular iron chelation; assay type: cell-based; conditions: 10 μmol·L^−1, parent Dp44mT or DpC
Experimental: as §3, §4

[14] = Post-preparative stability in the autosampler at 10°C; assay type: physicochemical; conditions: for Post-preparative stability: autosampler 10°C, 24 h
Experimental: as §6
Supplementary Table 1-3). […]
as §7

[15] = set-up: method as in PMID 12203104; conditions: humans, single i.v. bolus; cited from earlier work
[16] = high concentration level (2.105-3.115 µmol·L-1)
[17] = low concentration level (0.035-0.156 µmol·L-1)
[18] = medium concentration level (0.702-1.558 µmol·L-1)

**Q.** For `CCNC(=S)NN=C(c1ccccc1)c1ccccn1` [Bp4eT, 2-benzoylpyridine 4-ethyl-3-thiosemicarbazone], which “dose-corrected Cmax, fold higher than Dp44mT and DpC of the present study” value [1] is on record?
**A.** Its value is about 2 fold.

**Q.** What about the “AUC of the amidrazone metabolite relative to the parent drug” value ([2]; rat, in vivo) of the same compound?
**A.** The value was “≈ 20%”.

**Q.** What about the elimination half-life ([2]; rats) of the same compound?
**A.** Its elimination half-life is 1.4 h.

**Q.** Which IC50 [3] does the source give for `CN(C=NN=C(c1ccccn1)c1ccccn1)C1CCCCC1` [DpC-A, N-cyclohexyl-N′-(di(pyridin-2-yl)methylene)-N-methylformohydrazonamide] here?
**A.** Its IC50 is 257 ± 73.6 µM.

**Q.** And the “inhibition of 59Fe uptake from 59Fe-transferrin (in words)” value (MCF-7 cells [4])?
**A.** The value was “loss of Fe chelation efficacy”.

**Q.** And the IC50 [5]?
**A.** The IC50 was at least 257 µM.

**Q.** And the IC50 [6]?
**A.** The IC50 was 34.1 ± 6.35 µM.

**Q.** What about the IC50 [7] of the same compound?
**A.** The IC50 was 640 ± 65.9 µM.

**Q.** What about the IC50 [8] of the same compound?
**A.** The IC50 was at least 19 µM.

**Q.** And the IC50 [9]?
**A.** The IC50 was 19.5 ± 6.27 µM.

**Q.** And the Long-term stability [10, 16]?
**A.** The Long-term stability was 104.23%.

**Q.** And the Long-term stability [10, 17]?
**A.** The Long-term stability was 87.83%.

**Q.** What about the Long-term stability [10, 18] of the same compound?
**A.** The Long-term stability was 105.54%.

**Q.** And the “decomposition on storage (in words)” value ([10]; up to 7 days stored at −80°C)?
**A.** The value was “No significant decomposition”.

**Q.** And the IC50 [11]?
**A.** The IC50 was 32.3 ± 3.85 µM.

**Q.** What about the “59Fe mobilization (in words)” value (MCF-7 cells [12]) of the same compound?
**A.** Its value is “comparable (p > 0.05) to the control medium”.

**Q.** What about the “intracellular Fe chelation efficacy relative to parent chelator (100%)” value [13] of the same compound?
**A.** The value was 2.5%.

**Q.** And the “decomposition on storage (in words)” value ([14]; 24 h storage in the autosampler at 10°C)?
**A.** Its value is “No significant decomposition”.

**Q.** What about the Post-preparative stability [14, 16] of the same compound?
**A.** The Post-preparative stability was 99.55%.

**Q.** What about the Post-preparative stability [14, 17] of the same compound?
**A.** The Post-preparative stability was 101.11%.

**Q.** And the Post-preparative stability [14, 18]?
**A.** Its Post-preparative stability is 93.89%.

**Q.** Which half-life of elimination [15] does the source give for `NC(=S)NN=Cc1ncccc1N` [Triapine®, 3-aminopyridine-2-carboxaldehyde thiosemicarbazone] here?
**A.** The half-life of elimination was “approximately 1 h”.

Source: paper PMC4767442 (Oncotarget, 2015)
